{"source": "patent US9657059B2", "about": "“Immune system modulators” (Canimguide Therapeutics AB, priority 2013, dated 2017)", "key": {"[1]": {"system": "PBMCs from a healthy control", "experiment": "PBMC activation (CD69, CD71) by flow cytometry in RPMI plus 10% human AB serum", "format": "cell-based", "conditions": "40 μg/mL; for PBMC activation, cells with enhanced CD69: 24 hours", "description": "FIG. 41 is a series of graphs illustrating effects of modified peptides on activation of PBMCs from healthy control person. PBMCs were incubated with the peptides (40 μg/mL) for 24 hours in RPMI plus 10% human AB serum. Activation is determined as percentage of cells with enhanced marker CD69 using flow cytometry. FIG. 41A illustrates results of two experiments (410 and 412) performed for each peptide. FIG. 41B illustrates results of two experiments (414 and 416) performed for each peptide.\nFIG. 42 is a series of graphs illustrating effects of the full length peptide P28R and the 6 amino acid central sequence (32230, FFVKLS, SEQ ID NO: 62) in culture medium containing normal human AB serum. Activation is determined as percentage of cells with enhanced marker CD69 or CD71 using flow cytometry. PBMCs were incubated with the peptides (40 μg/mL) for 24 hours in RPMI plus 10% human AB serum. FIG. 42A illustrates the results of two experiments (420 and 422) performed for each peptide. FIG. 42B illustrates the results of two experiments (424 and 426) performed for each peptide.\nFIG. 46 is a series of graphs illustrating Effect of modified peptides on activation of PBMCs from healthy control person. […] PBMCs were incubated with the peptides (40 μg/mL) for 48 hours in RPMI plus 10% human AB serum.\nBased on the positional scan data, it is contemplated that substitutions of SEQ ID NO: 2 can be useful in accordance with some embodiments herein for binding P3028, de-blocking the LFA-1 receptor from P3028-mediated inhibition (e.g. displacing bound P3028 peptide and P3028-structure containing molecules from the LFA-1 receptor), and/or stimulating immune cells. The activity of peptide P28R (SEQ ID NO: 2) and modifications of P28R was studied in a human ex vivo model using PBMCs from a healthy control human in short term cultures, and with PBMC activation measured as a percentage of cells with enhanced CD69 (see Example 37).\nAs P28R (SEQ ID NO: 2) can bind to P3028 and stimulate PBMC's from healthy controls in short term cultures, for example when in a culture medium comprising RPMI plus 10% normal human AB serum (see Example 37), it is contemplated that truncations of P28R in accordance with some embodiments herein can be useful for binding to inhibitors of any one or more of the peptides listed in Tables 1-4. Truncations of P28R were assessed for their ability to activate PBMC's (see Example 38). PBMCs were incubated with the peptides (40 μg/mL) for 24 hours in RPMI plus 10% human AB serum. PBMC activation was measured as percent cells with enhanced expression of either CD69 (FIG. 42A) or CD71 (FIG. 42B) using flow cytometry. […] However, PBMCs were also incubated with the peptides in cancer sera from dogs, or in caner sera from human cancer patients (see FIG. 43). […] As such, it is contemplated that in accordance with some embodiments herein, P28R, P28 core, or combinations of these peptides are useful for stimulating immune cells in the serum of a subject that has cancer.\nEffects of modified peptides on the activation of PBMCs from a healthy control person were assessed (see Example 41). PBMCs were incubated with the peptides (40 μg/mL) for 48 hours in RPMI plus 10% human AB serum, and PBMC activation was determined by flow cytometry based on the percentage of cells with enhanced marker CD69 or CD71. Peptides P28R (SEQ ID NO: 2), P28 core (peptide 32230) (SEQ ID NO: 62), 32251 ([…]) (SEQ ID NO: 592), 32814 ([…]) (SEQ ID NO: 586), 32815 ([…]) (SEQ ID NO: 595), 32665 ([…]) (SEQ ID NO: 593), and 32819 ([…](C(PEG24))) (SEQ ID NO: 594) were tested. […] Accordingly, it is contemplated herein that"}, "[2]": {"system": "PBMCs", "experiment": "PBMC activation (CD69/CD71, flow cytometry) in RPMI plus 10% human AB serum", "format": "cell-based", "conditions": "healthy control person, 40 μg/mL; for PBMC activation, cells with enhanced CD69: 24 hours", "description": "The activity of peptide P28R (SEQ ID NO: 2) and modifications of P28R was studied in a human ex vivo model using PBMCs in short term cultures, 24 or 48 hours. Effects of P28R and modifications of P28R on PBMC's from a healthy control person were studied. Activation was measured as percentage of cells with enhanced marker CD69 using flow cytometry. PBMCs were incubated with the peptides (40 μg/mL) for 24 hours in RPMI plus 10% human AB serum.\nAs observed in Example 37, P28R (SEQ ID NO: 2) can stimulate PBMC's from healthy controls in short term cultures when RPMI plus 10% normal human AB serum is used as culture medium. Truncations of P28R were also assessed for their ability to activate PBMC's. PBMCs were incubated with the peptides (40 μg/mL) for 24 hours in RPMI plus 10% human AB serum. PBMC activation was measured as percent cells with enhanced expression of either CD69 (FIG. 42A) or CD71 (FIG. 42B) using flow cytometry. Two experiments were performed for each peptide.\nEffects of modified peptides on activation of PBMCs from healthy control person were assessed. Activation was determined as percentage of cells with enhanced marker CD69 or CD71 using flow cytometry. PBMCs were incubated with the peptides (40 μg/mL) for 48 hours in RPMI plus 10% human AB serum."}, "[3]": {"molecular_target": "P3028 (Homo sapiens, UniProt P02768)", "experiment": "PEPSCAN rampo assay: binding of P3028 to support-bound peptides, sandwich ELISA", "conditions": "binding of P3028 to peptide on solid phase", "description": "Based on the ability of P28R to bind the P3028 sequence/structure, unblock the LFA-1 receptor, and ameliorate the P3028 sequence/structure-dependent immunosuppression, P28R was used as a template compound to identify additional compounds that bind to and sequester P3028. Variants of the P28R structure were synthesized, and tested for the ability to bind P3028 using PEPSCAN technology (see Example 12). A library of peptides that include each genetically-coded amino acid substitution at each amino acid position of P28R (i.e., 19 substitutions for each position) was synthesized. Each peptide was affixed to a support pin, and the peptide library was incubated with P3028. The binding of the candidate inhibitors to P3028 was detected by a sandwich ELISA, where a rabbit anti-mouse peroxidase (rampo) secondary antibody was employed (see Example 12). The binding of each peptide was then assigned a rampo score (see FIG. 27). Peptide P28R had rampo values ranging between about 262 and 460 with a mean value of 370. In some embodiments, the immunoregulatory peptide inhibitor as disclosed herein, is selected for a desired P3028 binding rampo score. In some embodiments, the desired P3028 binding rampo score is greater than or equal to the rampo score of P28R. It is also contemplated that some peptides that bind to P3028 with less affinity than P28R have therapeutic application. Some peptides with binding affinities that are less than P28R, for example, may modulate signal transduction events differently than P28R by virtue of the fact that the affinity to P3028 is less. […] Accordingly, contemplated embodiments include peptides that bind with any affinity to P3028 (e.g., any one or more of the peptides provided in Table 5.1, preferably peptides that modulate the immune system (e.g., modulate, upregulate or down regulate a marker of the immune system or immunosuppression, such as reducing a P3028-mediated inhibition of immune cell proliferation, spreading, migration, or NK-cell cytotoxicity).\nIt is contemplated that inhibitors of any one or more of the peptides listed in Tables 1-4 can comprise modifications of the P28R (SEQ ID NO: 2) or P28 core (SEQ ID NO: 62) sequence, and further can be useful for reducing inhibition of the LFA-1 receptor, or for stimulating immune cells. To identify modification to inhibitor peptides in accordance with some embodiments herein, positional scan data was used to study the influence of substitution of different types of amino acids in each position of P28R (SEQ ID NO: 2) on the binding of P3028 (SEQ ID NO: 185). Each amino acid in the peptide sequence of P28R (SEQ ID NO: 2) was exchanged with all of the naturally occurring amino acids, and binding of P3028 (SEQ ID NO: 185) to each peptide on a solid phase chip was assessed (see, e.g. Example 36). A number of optional modifications to P28R in accordance with embodiments herein are summarized in Tables 5.3, 5.4, 5.5, 5.6, and 13. Optionally, an inhibitor peptide in accordance with some embodiments herein can comprise one or more of the modifications of Table 5.3 or Table 13. Optionally, an inhibitor peptide comprises a central core of positions 2, 5-11, and 15 as provided in Table 5.3, and the remaining position are omitted or substituted with substantially any amino acid. Optionally, an inhibitor peptide comprises a central core of positions K2, T5-S11, and E15 of SEQ ID NO: 2, and the remaining position are omitted or substituted with substantially any amino acid.\nEmbodiments of the invention also include immunoregulatory peptide inhibitors that have a specific affinity to P3028 sequences or structures. In some embodiments, the immunoregulatory peptide inhibitors have specific affinity to P3028 sequences or structures as measured by a rampo assay in which the immunoregulatory peptide inhibitors are affixed to a solid phase, P3028 is added, and the enzymatic activity of a rampo secondary antibody is measured so as to detect binding (see Example 12). […]"}, "[4]": {"molecular_target": "P3028 (SEQ ID NO: 185) (Homo sapiens, UniProt P02768)", "experiment": "PEPSCAN (rampo) ELISA: binding of His-tagged P3028 to P28R variants on chip", "description": "Based on the structure of peptide P28R, additional peptides were identified that bind to P3028. The additional binders included deletions, truncations, and or amino acid substitutions of peptide P28R. Binding of peptides to P3028 was assayed using PEPSCAN technology. PEPSCAN technology, or “rampo” assays are biochemical binding assays, details of which are provided below:\nA peptide microarray screening technology was used to measure binding of P28R (SEQ ID NO: 2) and variants of P28R to P3028 (SEQ ID NO: 185). In this technology libraries of synthetic peptides are synthesized and covalently linked onto polypropylene microarray chips. The linear peptides were synthesized onto credit-card format polypropylene cards (455 peptide formats/card) as described by (Timmerman et al., 2004) using standard Fmoc-chemistry using hexamethylenediamine (HMDA) as linker and deprotection using trifluoroacetic acid (TFA) with scavengers.\nThe binding of His-tagged P3028 to each peptide on the card was tested in an ELISA assay. The 455-well credit card format polypropylene cards containing the covalently linked peptides were incubated with His-tagged P3028 peptide (PGE73) solution consisting of 0.5 μg/mL diluted in blocking solution (4% horse serum, 5% ovalbumin (w/v) in PBS/1% TWEEN reagent). After washing, the peptides were incubated with a monoclonal mouse anti-His-tag antibody (Novagen, 70796-3, diluted 1/1000 in the incubation buffer) and subsequently after washing with a rabbit-anti-mouse antibody peroxidase (Rampo) conjugate (Southern Biotech, 6175-05, diluted 1/1000), for one hour at 25° C. After washing, the peroxidase substrate 2,2′-azine-di-3-ethylbenzthiazoline sulfonate (ABTS) and 2 μL of 3% H2O2 were added. The binding capacity of the mAb was measured as a color development at 405 nm (optical density, OD405). The color development was quantified with a charge-coupled device (CCD)—camera and an image processing system.\nThe OD405-values obtained by a CCD-camera was considered as raw data values (“rampo values,” “rampo units,” or “rampo scores”). The values mostly ranged from 0 to 3000, a log scale similar to 1 to 3 of a standard 96-well plate ELISA-reader. First the CCD-camera made a picture of the card before peroxidase coloring and then again a picture after the peroxidase coloring. […] These values were copied into an excel file and labeled as a raw data file. One follow-up manipulation was allowed. Sometimes a well can contain an air-bubble resulting in a false-positive value. If manual inspection of the cards detect an air-bubble the value are set to 0 for that well.\nA library of peptides tested for binding to peptide P3028 included all substitutions for each position of the peptide P28R (SEQ ID NO: 2) (i.e., 19 substitutions for each position). The results of the binding experiments are shown in FIGS. 27, 28, 29 and 30 and Table 5.1. […] P28R had rampo values ranging between 262 and 460 with a mean value of 370. […] In addition, M and S in position 7 (SEQ ID NOs: 9 and 10, respectively), and Q and M in position 11 (SEQ ID NOs: 15 and 16, respectively) all have rampo values over 700.\nFor each position of P28R, the rampo scores of the group of 19 different peptides containing an L-amino acid substitution were compared to the rampo score of a control sample P28R peptide (SEQ ID NO: 2) for that group. Single-amino acid substitutions having a rampo score greater than or substantially equivalent to P28R were identified. […]"}}, "data": [{"substance": "RKLDTFFVKLSLFTERRR [compound 32814]", "values": [{"measurement": "PBMC activation, cells with enhanced CD69 and CD71", "setting": "[1]; 48 hours", "result": "stimulatory effect in short term cultures similar to that of P28R"}, {"measurement": "PBMC activation, enhanced CD69 or CD71", "setting": "[2]; 48 hours", "result": "stimulatory effect in short term cultures similar to that of P28R"}]}, {"substance": "KKLDTFFVYLSLFTER [compound 31135]", "values": [{"measurement": "PBMC activation, cells with enhanced CD69", "setting": "[1]", "result": "directly stimulate"}, {"measurement": "PBMC activation, cells with enhanced CD69", "setting": "[2]", "result": "also stimulated immune cells"}]}, {"substance": "391 (KKLDTFFVKLSLFTER) [compound 391]", "values": [{"measurement": "RAMPO Score", "setting": "[3]", "result": 366}, {"measurement": "RAMPO Score", "setting": "[4]; binding of His-tagged P3028 0.5 μg/mL to chip-bound peptide, OD405 raw value", "result": 260}]}, {"substance": "KKLTFFVKLSLFTER [SEQ ID NO: 64]", "values": [{"measurement": "rampo score / binding to P3028 compared with P28R", "setting": "[4]; truncations, deletions, glycine substitutions (FIG. 29, 30)", "result": "comparable to, or higher than peptide P28R"}]}, {"substance": "KKLDTVMVKLQLMTER [compound 30680]", "values": [{"measurement": "PBMC activation, cells with enhanced CD69", "setting": "[1]", "result": "did not stimulate"}, {"measurement": "PBMC activation, cells with enhanced CD69", "setting": "[2]", "result": "induced activation of PBMCs"}]}]}
